Active and inactive are the calls of the source. No cut-off for these calls is given here.
How the values were obtained:
Calf thymus DNA [1] = experiment: Binding affinity to human telomeric repeat sequence in 219 bp calf thymus DNA fragment assessed as DNA alkylating activity at 20 to 500 nM after 12 hrs by PAGE in presence of 3-(4-(4-(4-(3-(3-(4-(4-(4-(4-acetamido-1-methyl-1H-pyrrole-2-carboxamido)-1-methyl-1H-pyrrole-2-carboxamido)-1-methyl-1H-pyrrole-2-carboxamido)-1-methyl-1H-pyrrole-2-carboxamido)propanamido)propanamido)-1-methyl-1H-pyrrole-2-carboxamido)-1-methyl-1H-pyrrole-2-carboxamido)-1-methyl-1H-pyrrole-2-carboxamido)-N,N-dimethylpropan-1-aminium; format: nucleic-acid assay
Jurkat [2] = experiment: Cytotoxicity against human Jurkat cells after 48 hrs by WST-8 assay in presence of 10 uM distamycin A pretreated 24 hrs before compound addition; format: functional, cell-based
Calf thymus DNA [3] = experiment: Binding affinity to site 4 human telomeric 5'GGTTAGGGTTA3' sequence in 219 bp calf thymus DNA fragment assessed as DNA alkylating activity at 20 to 500 nM after 12 hrs by PAGE in presence of distamycin A; format: nucleic-acid assay
Calf thymus DNA [4] = experiment: (§1) Binding affinity to site 2 human telomeric 5'GGTTAGGGTTA3' sequence in 219 bp calf thymus DNA fragment assessed as DNA alkylating activity at 20 to 500 nM after 12 hrs by PAGE in presence of {3-[(4-{[4-({4-[(4-Acetylamino-1-methyl-1H-pyrrole-2-carbonyl)-amino]-1-methyl-1H-pyrrole-2-carbonyl}-amino)-1-methyl-1H-pyrrole-2-carbonyl]-amino}-1-methyl-1H-pyrrole-2-carbonyl)-amino]-propyl}-dimethyl-ammonium; format: nucleic-acid assay
Calf thymus DNA [5] = experiment: Binding affinity to site 2 human telomeric 5'GGTTAGGGTTA3' sequence in 219 bp calf thymus DNA fragment assessed as DNA alkylating activity at 20 to 500 nM after 12 hrs by PAGE in presence of distamycin A; format: nucleic-acid assay
Jurkat [6] = experiment: Cytotoxicity against human Jurkat cells after 48 hrs by WST-8 assay; format: functional, cell-based
Calf thymus DNA [7] = experiment: Binding affinity to site 3 human telomeric 5'GGTTAGGGTTA3' sequence in 219 bp calf thymus DNA fragment assessed as DNA alkylating activity at 20 to 500 nM after 12 hrs by PAGE in presence of distamycin A; format: nucleic-acid assay
Calf thymus DNA [8] = experiment: Binding affinity to human telomeric repeat sequence in 219 bp calf thymus DNA fragment assessed as DNA alkylating activity at 20 to 500 nM after 12 hrs by PAGE; format: nucleic-acid assay
Calf thymus DNA [9] = experiment: as §1, with “site 3” for “site 2”; format: nucleic-acid assay
Jurkat [10] = experiment: Cytotoxicity against human Jurkat cells after 48 hrs by WST-8 assay in presence of 10 uM {3-[(4-{[4-({4-[(4-Acetylamino-1-methyl-1H-pyrrole-2-carbonyl)-amino]-1-methyl-1H-pyrrole-2-carbonyl}-amino)-1-methyl-1H-pyrrole-2-carbonyl]-amino}-1-methyl-1H-pyrrole-2-carbonyl)-amino]-propyl}-dimethyl-ammonium pretreated 24 hrs before compound addition; format: functional, cell-based
Calf thymus DNA [11] = experiment: as §1, with “site 4” for “site 2”; format: nucleic-acid assay
Calf thymus DNA [12] = experiment: Binding affinity to human telomeric repeat sequence in 219 bp calf thymus DNA fragment assessed as DNA alkylating activity at 200 nM after 12 hrs by PAGE in presence of distamycin A; format: nucleic-acid assay
Calf thymus DNA [13] = experiment: Binding affinity to human telomeric repeat sequence in 219 bp calf thymus DNA fragment assessed as DNA alkylating activity at 200 nM after 12 hrs by PAGE in presence of {3-[(4-{[4-({4-[(4-Acetylamino-1-methyl-1H-pyrrole-2-carbonyl)-amino]-1-methyl-1H-pyrrole-2-carbonyl}-amino)-1-methyl-1H-pyrrole-2-carbonyl]-amino}-1-methyl-1H-pyrrole-2-carbonyl)-amino]-propyl}-dimethyl-ammonium; format: nucleic-acid assay

CC(=O)Nc1cn(C)c(C(=O)Nc2cn(C)c(C(=O)Nc3cn(C)c(C(=O)NCCC(=O)NCCC(=O)Nc4cn(C)c(C(=O)Nc5cn(C)c(C(=O)Nc6cn(C)c(C(=O)Nc7ccc8[nH]c(C(=O)N9CC(CCl)c%10c9cc(O)c9ccccc%109)cc8c7)n6)n5)n4)n3)n2)n1 (stereo not drawn)
Activity (Calf thymus DNA [1]): Active | IC50 (Jurkat [2]): 32 nM | Activity (Calf thymus DNA [3]): Active | Activity (Calf thymus DNA [4]): Active | Activity (Calf thymus DNA [5]): Active | IC50 (Jurkat [6]): 100 nM | Activity (Calf thymus DNA [7]): Active | Activity (Calf thymus DNA [8]): inactive | Activity (Calf thymus DNA [9]): Active | IC50 (Jurkat [10]): 79 nM | Activity (Calf thymus DNA [11]): Active | Activity (Calf thymus DNA [12]): Active | Activity (Calf thymus DNA [13]): Active
